Test results from patent US20130172360A1, “DERIVATIVES OF AZAINDAZOLE OR DIAZAINDAZOLE TYPE AS MEDICAMENT” (PIERRE FABRE MEDICAMENT, priority 2011, published 2013).

Assays:
[1] = system: Karpas 299 cells (human anaplastic large-cell lymphoma); assay: Test for measuring inhibition of cell (Karpas 299) proliferation (ATPlite); assay type: cell-based; conditions: 72 hours
Procedure: Test for Measuring Inhibition of Cell (Karpas 299) Proliferation:
The antiproliferative activities of the compounds according to the invention were measured by the ATPlite technique (Perkin Elmer).
Nonadherent human anaplastic large-cell lymphoma cells (Karpas 299) are inoculated in 96-well plates (300,000 cells/ml) at day 1, at a concentration compatible with logarithmic growth for the 72 hours required for the evaluation of the compounds. All of the cells are treated at day 1 and then placed in an incubator at 37° C. under an atmosphere of 5% CO2. Cell viability is evaluated at day 4 by assaying released ATP, which is characteristic of viable cells. IC50s are determined by nonlinear regression on the basis of a sigmoidal dose/response relationship model, wherein the Hill coefficient is left variable, carried out on the GraphPad software package according to the algorithm provided.

[2] = target: T1, ALK (Homo sapiens, UniProt Q9UM73); assay: Test for measuring inhibition of ALK kinase (GST-PLCγ1 substrate, anti-phosphotyrosine ELISA, luminescence); assay type: biochemical; conditions: 250 μM ATP, 30 minutes at 30° C.; read-out: Enzymatic inhibition of ALK (IC50)
Procedure: Test for Measuring Inhibition of ALK Kinase:
A ViewPlate microplate (Packard) is incubated with 0.1 mg/ml GST-PLCγ1 substrate (purified recombinant form) in phosphate buffer (PBS, pH 7.4) (100 μl/well) for one hour under stirring. The plate is then saturated with blocking solution comprising 5% bovine serum albumin (BSA) (Sigma) in PBS buffer, pH 7.4.
After having added a compound according to the invention to the desired final concentration (typical range between 30 μM and 10 nM), the reaction is carried out by adding 180 ng/ml ALK to a reaction buffer comprised of 13 mM Tris, pH 7.5 (Sigma); 6.5 mM MgCl2 (Merck); 0.65 mM dithiothreitol (DTT) (Acros); 39 mM sodium ([…] (TCI); 0.65 mM sodium orthovanadate (Sigma); and 250 μM ATP (Sigma). Incubation is carried out for 30 minutes at 30° C. under stirring.
After three washings under stirring in 0.1% PBS/Tween-20 buffer (Sigma), an anti-phosphotyrosine antibody, coupled with HRP (UBI) diluted to 1/1000 in 5 mg/ml PBS/BSA buffer, is incubated for one hour with stirring. After three new washings in 0.1% PBS/Tween-20, the wells are incubated for two minutes with […] of SuperSignal ELISA mixture (Pierce).
The signal is read in luminescence mode using a luminometer (SpectraMax M5e, Molecular Devices).
IC50s are determined by nonlinear regression on the basis of a sigmoidal dose/response relationship model, wherein the Hill coefficient is left variable, carried out on the GraphPad software package according to the algorithm provided.

[3] = target: T2, c-Src (Homo sapiens, UniProt P12931); assay: Inhibition of a panel of kinases (Millipore): c-Src; assay type: biochemical; conditions: Millipore kinase panel; read-out: Enzyme inhibition (IC50, nM) c-Src
T2 construct: purchased Millipore
Description: (§1) Test for Measuring Inhibition of a Panel of Kinases:
(§2) These kinases are produced by Millipore and are screened according to the manufacturer's protocols.

[4] = target: T1, ALK; assay: Inhibition of a panel of kinases (Millipore): ALK; assay type: biochemical; conditions: Millipore kinase panel; read-out: Enzyme inhibition (IC50, nM) ALK
Description: as §1, §2

[5] = system: human anaplastic large-cell lymphoma (ALCL) tumor model; assay: In vivo antitumor activity, ALCL tumors grafted subcutaneously in mice, oral daily dosing; conditions: mice with subcutaneous ALCL tumors, daily schedule; for adverse effects: animals weighed several times per week; for inhibition of ALCL tumor growth: corresponds to complete regression of the tumors
Procedure: Pharmacological Activity In Vivo
The compounds were administered orally at various doses on a daily schedule to mice with ALCL tumors grafted subcutaneously. Tumor size was measured regularly during the study and the animals were weighed several times per week in order to identify any adverse effects. A compound is declared active if it induces inhibition of ALCL tumor growth by at least 58%.

[6] = target: T3, Abl (Homo sapiens, UniProt P00519); assay: Inhibition of a panel of kinases (Millipore): Abl; assay type: biochemical; conditions: Millipore kinase panel; read-out: Enzyme inhibition (IC50, nM) Abl
T3 construct: purchased Millipore
Description: as §1, §2

T1 sequence (Q9UM73 19-1620): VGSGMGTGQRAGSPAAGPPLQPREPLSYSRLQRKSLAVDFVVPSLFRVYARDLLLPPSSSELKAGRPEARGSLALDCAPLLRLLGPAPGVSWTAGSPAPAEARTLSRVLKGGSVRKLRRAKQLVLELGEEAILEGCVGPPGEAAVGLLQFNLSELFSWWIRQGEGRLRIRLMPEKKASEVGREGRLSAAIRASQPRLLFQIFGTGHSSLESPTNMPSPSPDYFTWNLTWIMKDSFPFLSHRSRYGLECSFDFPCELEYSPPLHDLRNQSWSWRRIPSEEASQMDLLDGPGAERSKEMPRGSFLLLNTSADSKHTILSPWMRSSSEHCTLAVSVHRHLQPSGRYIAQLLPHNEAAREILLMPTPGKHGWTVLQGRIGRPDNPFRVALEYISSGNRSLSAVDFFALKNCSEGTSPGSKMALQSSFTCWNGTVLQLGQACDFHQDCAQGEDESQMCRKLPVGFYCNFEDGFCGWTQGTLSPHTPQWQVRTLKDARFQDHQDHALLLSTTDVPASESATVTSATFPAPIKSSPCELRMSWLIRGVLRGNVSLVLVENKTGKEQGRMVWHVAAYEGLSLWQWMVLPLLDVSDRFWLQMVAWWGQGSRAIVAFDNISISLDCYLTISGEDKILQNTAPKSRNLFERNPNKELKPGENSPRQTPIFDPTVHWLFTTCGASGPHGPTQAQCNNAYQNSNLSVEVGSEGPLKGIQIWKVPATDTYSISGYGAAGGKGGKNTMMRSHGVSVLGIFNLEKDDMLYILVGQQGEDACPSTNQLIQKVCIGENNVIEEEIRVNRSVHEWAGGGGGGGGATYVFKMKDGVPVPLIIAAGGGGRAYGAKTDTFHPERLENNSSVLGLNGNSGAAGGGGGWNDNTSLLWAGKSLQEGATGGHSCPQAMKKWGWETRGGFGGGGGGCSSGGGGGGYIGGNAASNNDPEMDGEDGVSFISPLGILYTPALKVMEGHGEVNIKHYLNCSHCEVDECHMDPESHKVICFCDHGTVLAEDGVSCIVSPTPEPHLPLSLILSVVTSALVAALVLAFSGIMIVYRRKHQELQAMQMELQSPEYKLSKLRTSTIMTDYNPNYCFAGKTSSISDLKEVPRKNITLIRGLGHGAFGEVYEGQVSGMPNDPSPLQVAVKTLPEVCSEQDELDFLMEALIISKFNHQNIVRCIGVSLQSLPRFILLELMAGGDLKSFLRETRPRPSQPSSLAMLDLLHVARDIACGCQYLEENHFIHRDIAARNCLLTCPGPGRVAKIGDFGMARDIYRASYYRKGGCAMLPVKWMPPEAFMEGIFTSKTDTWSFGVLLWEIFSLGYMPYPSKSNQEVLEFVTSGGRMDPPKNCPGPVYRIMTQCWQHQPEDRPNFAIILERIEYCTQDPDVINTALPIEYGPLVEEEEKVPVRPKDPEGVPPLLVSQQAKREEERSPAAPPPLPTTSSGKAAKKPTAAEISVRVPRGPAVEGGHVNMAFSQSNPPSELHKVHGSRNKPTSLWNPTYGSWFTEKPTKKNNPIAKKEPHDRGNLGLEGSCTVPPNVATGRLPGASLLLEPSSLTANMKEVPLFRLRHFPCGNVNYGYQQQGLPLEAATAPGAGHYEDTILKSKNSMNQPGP
T2 sequence (P12931 whole entry): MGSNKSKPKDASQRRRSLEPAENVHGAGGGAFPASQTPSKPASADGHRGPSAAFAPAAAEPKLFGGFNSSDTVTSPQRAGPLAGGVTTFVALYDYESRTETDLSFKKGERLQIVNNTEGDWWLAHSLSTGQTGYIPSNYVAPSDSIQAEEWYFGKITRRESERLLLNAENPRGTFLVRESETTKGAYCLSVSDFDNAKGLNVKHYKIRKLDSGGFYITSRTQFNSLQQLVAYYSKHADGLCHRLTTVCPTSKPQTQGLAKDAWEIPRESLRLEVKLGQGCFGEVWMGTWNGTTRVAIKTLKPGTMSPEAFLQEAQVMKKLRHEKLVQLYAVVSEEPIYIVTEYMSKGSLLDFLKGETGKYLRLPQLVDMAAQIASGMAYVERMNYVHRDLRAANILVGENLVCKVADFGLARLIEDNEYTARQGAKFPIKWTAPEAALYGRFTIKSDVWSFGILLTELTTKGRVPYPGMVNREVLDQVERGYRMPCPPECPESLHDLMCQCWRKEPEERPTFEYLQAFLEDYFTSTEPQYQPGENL
T3 sequence (P00519 whole entry, species assumed): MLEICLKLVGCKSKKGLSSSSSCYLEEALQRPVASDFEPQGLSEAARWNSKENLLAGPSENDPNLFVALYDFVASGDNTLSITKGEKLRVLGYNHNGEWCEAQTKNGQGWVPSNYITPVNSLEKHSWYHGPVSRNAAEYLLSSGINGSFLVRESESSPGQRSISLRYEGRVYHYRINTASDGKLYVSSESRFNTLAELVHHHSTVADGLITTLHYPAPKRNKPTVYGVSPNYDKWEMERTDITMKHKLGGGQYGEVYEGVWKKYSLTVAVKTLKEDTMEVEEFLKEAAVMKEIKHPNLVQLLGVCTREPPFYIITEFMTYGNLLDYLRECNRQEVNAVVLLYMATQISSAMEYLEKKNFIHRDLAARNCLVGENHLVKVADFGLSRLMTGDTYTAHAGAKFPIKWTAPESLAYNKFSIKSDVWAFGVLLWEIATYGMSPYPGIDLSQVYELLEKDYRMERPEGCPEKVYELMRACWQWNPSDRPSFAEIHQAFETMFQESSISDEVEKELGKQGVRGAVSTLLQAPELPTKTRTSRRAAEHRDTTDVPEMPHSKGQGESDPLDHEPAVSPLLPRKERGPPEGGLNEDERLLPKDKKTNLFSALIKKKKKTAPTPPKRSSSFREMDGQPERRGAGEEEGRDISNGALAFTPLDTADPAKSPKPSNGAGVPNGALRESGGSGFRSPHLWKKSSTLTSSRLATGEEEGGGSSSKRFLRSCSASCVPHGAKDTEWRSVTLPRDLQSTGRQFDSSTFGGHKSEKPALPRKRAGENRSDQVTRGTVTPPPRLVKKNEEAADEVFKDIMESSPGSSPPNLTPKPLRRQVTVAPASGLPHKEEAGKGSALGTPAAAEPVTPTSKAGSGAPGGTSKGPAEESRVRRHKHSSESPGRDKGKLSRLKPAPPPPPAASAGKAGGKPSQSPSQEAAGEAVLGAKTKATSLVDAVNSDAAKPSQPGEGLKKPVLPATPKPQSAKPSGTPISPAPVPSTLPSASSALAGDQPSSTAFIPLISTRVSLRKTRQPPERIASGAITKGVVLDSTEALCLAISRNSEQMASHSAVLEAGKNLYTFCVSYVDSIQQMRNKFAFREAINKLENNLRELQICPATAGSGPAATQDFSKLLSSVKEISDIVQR

SMILES | IC50 [1] [nM] | IC50 [2] [nM] | IC50 [3] [nM] | IC50 [4] [nM] | IC50 [6] [nM] | adverse effects [5] | inhibition of ALCL tumor growth [5] [%]
CN1CCN(c2ccc(C(=O)Nc3n[nH]c4ncc(CCc5cc(F)cc(F)c5)cc34)c(NC3CCOCC3)c2)CC1 [Example 31, N-(5-(3,5-difluorophenethyl)-1H-pyrazolo[3,4-b]pyridin-3-yl)-4-(4-methylpiperazin-1-yl)-2-(tetrahydro-2H-pyran-4-ylamino)benzamide] | 830 | 17 | – | – | – | – | –
CN1CCN(c2ccc(CNc3n[nH]c4ncc(Sc5cc(F)cc(F)c5)cc34)cc2)CC1 [Example 28, 5-(3,5-difluorophenylthio)-N-(4-(4-methylpiperazin-1-yl)benzyl)-1H-pyrazolo[3,4-b]pyridin-3-amine] | – | 36 | – | – | – | – | –
CN1CCN(c2ccc(C(=O)Nc3n[nH]c4ncc(Sc5cc(F)cc(F)c5)cc34)c(NC3CCOCC3)c2)CC1 [Example 30, N-(5-(3,5-difluorophenylthio)-1-H-pyrazolo[3,4-b]pyridine-3-yl)-4-(4-methylpiperazine-1-yl)-2-(tetrahydro-2H-pyran-4-ylamino)benzamide] | 160 | 1 | 4 | 7 | 18 | no adverse effects | 100

Further lines, with some results ahead:

IC50 [1] [nM] | IC50 [2] [nM] | IC50 [3] [nM] | IC50 [4] [nM] | IC50 [6] [nM] | SMILES | adverse effects [5] | inhibition of ALCL tumor growth [5] [%]
2600 | 66 | – | – | – | COc1nc2[nH]nc(NC(=O)c3ccc(N4CCN(C)CC4)cc3NC3CCOCC3)c2cc1Sc1cc(F)cc(F)c1 [Example 30-5, N-(5-(3,5-difluorophenylthio)-6-methoxy-1H-pyrazolo[3,4-b]pyridin-3-yl)-4-(4-methylpiperazin-1-yl)-2-(tetrahydro-2H-pyran-4-ylamino)benzamide] | – | –
2200 | 20 | – | – | – | CN1CCN(c2ccc(C(=O)Nc3n[nH]c4ncc(Sc5ccccc5C(N)=O)cc34)c(NC3CCOCC3)c2)CC1 [Example 30-1, N-(5-(2-carbamoylphenylthio)-1H-pyrazolo[3,4-b]pyridin-3-yl)-4-(4-methylpiperazin-1-yl)-2-(tetrahydro-2H-pyran-4-ylamino)benzamide] | – | –
– | 1 | 9 | 15 | 38 | CN1CCN(c2ccc(C(=O)Nc3n[nH]c4ncc(Cc5cc(F)cc(F)c5)cc34)c(NC3CCOCC3)c2)CC1 [Example 30-9, N-(5-(3,5-difluorobenzyl)-1H-pyrazolo[3,4-b]pyridin-3-yl)-4-(4-methylpiperazin-1-yl)-2-(tetrahydro-2H-pyran-4-ylamino)benzamide] | no adverse effects | 100
